Experimental data as given in article PMC6723713, “Purification, Characterization and Evaluation of Inhibitory Mechanism of ACE Inhibitory Peptides from Pearl Oyster (Pinctada fucata martensii) Meat Protein Hydrolysate” (Marine Drugs, 2019).
Like-named read-outs stand apart in the source and are kept apart here. Where a SMILES comes first, the peptide text is derived from it.

Columns and labels:
ACE [1] = molecular target: T1, ACE (Oryctolagus cuniculus, UniProt P12822); settings: cited from earlier work
T1 construct: purchased Sigma-Aldrich (Shanghai, China)
T1 sequence (P12822 34-1310): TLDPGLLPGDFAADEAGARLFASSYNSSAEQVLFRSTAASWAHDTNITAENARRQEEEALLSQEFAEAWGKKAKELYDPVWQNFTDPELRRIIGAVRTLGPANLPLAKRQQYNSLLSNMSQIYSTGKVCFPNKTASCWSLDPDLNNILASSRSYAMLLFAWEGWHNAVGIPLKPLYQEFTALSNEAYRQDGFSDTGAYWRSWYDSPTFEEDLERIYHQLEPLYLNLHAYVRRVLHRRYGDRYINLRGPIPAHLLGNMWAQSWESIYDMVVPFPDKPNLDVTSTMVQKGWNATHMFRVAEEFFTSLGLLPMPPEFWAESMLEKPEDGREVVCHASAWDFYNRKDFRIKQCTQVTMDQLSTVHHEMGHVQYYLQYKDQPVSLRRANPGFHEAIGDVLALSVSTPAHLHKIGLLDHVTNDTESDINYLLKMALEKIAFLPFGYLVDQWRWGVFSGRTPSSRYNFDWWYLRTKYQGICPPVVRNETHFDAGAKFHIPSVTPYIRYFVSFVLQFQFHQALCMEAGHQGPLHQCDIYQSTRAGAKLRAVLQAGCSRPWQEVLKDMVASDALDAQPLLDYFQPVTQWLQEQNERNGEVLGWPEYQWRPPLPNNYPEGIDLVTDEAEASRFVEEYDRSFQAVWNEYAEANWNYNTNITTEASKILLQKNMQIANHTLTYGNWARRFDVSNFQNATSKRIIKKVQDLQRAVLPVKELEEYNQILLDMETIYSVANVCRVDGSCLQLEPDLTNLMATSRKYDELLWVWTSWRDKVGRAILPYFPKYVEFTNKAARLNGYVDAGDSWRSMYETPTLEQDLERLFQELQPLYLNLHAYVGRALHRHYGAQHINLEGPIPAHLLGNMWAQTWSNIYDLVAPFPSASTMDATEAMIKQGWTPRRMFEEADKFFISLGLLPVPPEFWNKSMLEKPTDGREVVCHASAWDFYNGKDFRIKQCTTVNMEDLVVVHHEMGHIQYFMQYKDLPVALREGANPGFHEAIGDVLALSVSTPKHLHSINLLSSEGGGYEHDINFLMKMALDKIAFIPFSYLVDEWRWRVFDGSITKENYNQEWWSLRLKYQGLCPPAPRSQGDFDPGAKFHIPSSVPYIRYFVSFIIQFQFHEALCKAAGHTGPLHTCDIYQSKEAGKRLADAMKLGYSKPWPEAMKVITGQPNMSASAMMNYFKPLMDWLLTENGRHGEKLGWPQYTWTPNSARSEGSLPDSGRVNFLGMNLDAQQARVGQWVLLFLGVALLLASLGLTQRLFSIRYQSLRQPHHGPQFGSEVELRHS
Excerpt: Table 2 Summary of ACE inhibitory peptides having similar structure with purified peptides. | column: IC50 (μM) || Table 3 Inhibition pattern of ACE inhibitory peptides derived from marine products. | column: Inhibition Pattern; IC50 (μM)

[2] = molecular target: T2, Angiotensin I converting enzyme (UniProt P12822)
T2 sequence: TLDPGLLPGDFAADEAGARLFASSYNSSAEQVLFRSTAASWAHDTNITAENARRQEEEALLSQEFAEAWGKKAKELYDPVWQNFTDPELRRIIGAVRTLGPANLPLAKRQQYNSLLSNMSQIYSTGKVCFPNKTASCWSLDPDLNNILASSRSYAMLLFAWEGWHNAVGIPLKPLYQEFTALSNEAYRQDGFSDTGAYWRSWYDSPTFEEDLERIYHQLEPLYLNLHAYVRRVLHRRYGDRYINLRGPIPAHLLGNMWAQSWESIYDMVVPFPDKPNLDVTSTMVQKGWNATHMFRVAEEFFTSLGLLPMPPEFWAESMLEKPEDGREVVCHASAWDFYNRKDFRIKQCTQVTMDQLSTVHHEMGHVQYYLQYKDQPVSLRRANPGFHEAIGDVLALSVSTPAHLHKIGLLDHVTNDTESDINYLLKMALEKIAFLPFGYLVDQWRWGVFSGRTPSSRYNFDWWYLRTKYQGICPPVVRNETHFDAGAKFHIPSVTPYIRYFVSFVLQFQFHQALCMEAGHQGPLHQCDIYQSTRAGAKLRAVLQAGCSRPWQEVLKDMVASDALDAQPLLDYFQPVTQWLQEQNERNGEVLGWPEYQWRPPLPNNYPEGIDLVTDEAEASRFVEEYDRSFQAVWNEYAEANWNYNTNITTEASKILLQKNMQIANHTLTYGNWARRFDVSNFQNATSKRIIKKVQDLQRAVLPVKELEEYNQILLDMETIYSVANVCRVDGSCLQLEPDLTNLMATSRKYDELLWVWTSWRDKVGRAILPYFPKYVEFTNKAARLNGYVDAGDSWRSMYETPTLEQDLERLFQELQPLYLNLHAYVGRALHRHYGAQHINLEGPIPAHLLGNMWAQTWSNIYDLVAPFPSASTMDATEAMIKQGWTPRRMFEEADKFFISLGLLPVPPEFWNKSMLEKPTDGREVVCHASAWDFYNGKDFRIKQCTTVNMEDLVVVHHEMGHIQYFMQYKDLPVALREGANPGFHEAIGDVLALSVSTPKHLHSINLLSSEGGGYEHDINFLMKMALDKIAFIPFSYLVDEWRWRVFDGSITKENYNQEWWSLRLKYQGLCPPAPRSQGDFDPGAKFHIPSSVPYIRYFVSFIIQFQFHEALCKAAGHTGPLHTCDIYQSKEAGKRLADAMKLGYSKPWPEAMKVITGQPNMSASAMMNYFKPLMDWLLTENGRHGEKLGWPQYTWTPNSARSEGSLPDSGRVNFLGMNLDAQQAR

ACE [3] = molecular target: T1, ACE; test: Inhibition pattern by Lineweaver-Burk plot; type: biochemical; settings: HHL 1-5 mM, HLHT 0, 295.86, 591.72 μM, GWA 0, 98.62, 197.24 μM, pre-incubated 37 °C 10 min, 5 min incubation with HHL, HPLC 228 nm
Procedure: The inhibitory patterns of purified peptides HLHT and GWA on ACE were evaluated by incubating various concentrations (1, 2, 3, 4, and 5 mM) of HHL with ACE in the absence and presence of inhibitory peptides. The concentrations of HLHT were set as 0, 295.86, and 591.72 μM while those of GWA were set as 0, 98.62, and 197.24 μM. The purified ACE inhibitory peptide (30 µL) at various concentrations and ACE solution (30 µL) were mixed and pre-incubated at 37 °C for 10 min. Subsequently, HHL (40 µL) was added and incubated for 5 min at 37 °C. The reaction was terminated by adding 1 M HCl (150 µL). The released hippuric acid (HA) was quantified using HPLC at 228 nm. The ACE inhibitory pattern in the presence of the inhibitor was determined using the Lineweaver–Burk plot, where the reciprocal of HHL concentration was used as the independent variable (X-axis) and the reciprocal of production rate of HA as the dependent variable (Y-axis).

[4] = molecular target: T3, Angiotensin-I-converting enzyme (ACE) (Oryctolagus cuniculus, UniProt P12822); test: In vitro assay of ACE inhibitory activity; type: biochemical; settings: triplicate, mean ± SD; for ACE inhibitory activity: 0.54 mg/mL protein concentration, second RP-HPLC fractions; for IC50: logarithmic regression
T3 construct: purchased Sigma-Aldrich (Shanghai, China)
T3 sequence (P12822 34-1310): T1 sequence (P12822 34-1310)
Procedure: ACE inhibitory activity in vitro was measured according to the reported method. The activity was determined for each step of separation, and fraction with the highest ACE inhibitory activity was collected for further purification. The IC50 value (the concentration of peptide inhibiting 50% of enzyme activity) was determined by logarithmic regression analysis.
(§1) All the experiments were performed in triplicate and mean values with ± SD (standard deviation) were reported. All data were analyzed by one-way ANOVA, using SPSS 17.0 software (Chicago, IL, USA). A value of p < 0.05 was considered statistically significant.

[5] = molecular target: T2, Angiotensin I converting enzyme; remark: listed apart in the source
SD rats = test: Antihypertensive activity in SD rats, SBP and DBP after intravenous administration; type: in vivo; settings: 10 mg/kg
Procedure: The antihypertensive efficacy of POMPH was evaluated in male SD rats (10 weeks old, 250 ± 30 g body weight, specific pathogen-free, provided by the animal experimental center of Guangxi medical University, China). All rats were cared and fed following the standards for laboratory animals established by People’s Republic of China (GB14925-2001) and animal handling followed the Declaration of Helsinki and the Guiding Principles in the Care and Use of Animals. The rats were exposed to intraperitoneal injection L-NNA (L-nitro-arginine) once a day for four weeks prior to the experiments. The POMPH at 10 mg/kg, dissolved in a vehicle of 0.9% NaCl, were intravenously administered. The concentration of HLHT and GWA in POMPH were 1.8 µg/mg and 1.2 µg/mg, respectively. The efficacy of POMPH on lowering SBP and diastolic blood pressure (DBP) was compared to that of captopril (10 mg/kg). Control rats were administrated with the same volume of saline solution. SBP and DBP were determined by the noninvasive tail cuff method using BP-2010 (Softron Beijing biotechnology Co., Ltd) at 0 min (before) and 5, 10, 20 and 45 min after the administration.
as §1

[6] = synthesized peptide (98% purity)

Molecule: FEDYVPLSCF
- IC50 (ACE [1]; ref [31]): 10.8 µM
- Inhibition Pattern (ACE [1]; ref [31]): Mixed inhibition

Molecule: Gly-Trp-Ala, synthesized (peptide)
- IC50 of ACE inhibitory activity (enzyme activity on HHL), synthesized peptide [2]: 98.9 µM

Molecule: CRQHTLGHNT-QTSIAQ (CRQHTLGHNTQTSIAQ)
- IC50 (ACE [1]; ref [32]): 80 µM

Molecule: VWDPPKFD
- IC50 (ACE [1]; ref [31]): 9.1 µM
- Inhibition Pattern (ACE [1]; ref [31]): Non-competitive

Molecule: C[C@H](NC(=O)[C@H](Cc1c[nH]c2ccccc12)NC(=O)CN)C(=O)O [GWA, Gly-Trp-Ala] (H-Gly-Trp-Ala-OH)
- Inhibition Pattern (ACE [3]): competitive inhibition pattern
- ACE inhibitory activity [4]: 84.71 ± 1.27%
- IC50 ([4]; peptide purified from POMPH): 109 ± 1.45 µM
- IC50 [4, 6]: 98.9 ± 5.73 µM

Molecule: VWYHT
- IC50 (ACE [1]; ref [28]): 28.3 µM

Molecule: GWAP
- IC50 (ACE [1]; ref [28]): 3.86 µM

Molecule: HLPLP
- IC50 (ACE [1]; ref [28]): 41 µM

Molecule: GDLGKTTTVSN-WSPPKYKDTP
- Inhibition Pattern (ACE [1]; ref [33]): Non-competitive

Molecule: VELYP
- IC50 (ACE [1]; ref [34]): 5.22 µM
- Inhibition Pattern (ACE [1]; ref [34]): Non-competitive

Molecule: CRQHTLGHNT-QTSIAQ
- Inhibition Pattern (ACE [1]; ref [32]): Non-competitive

Molecule: HLPLPLL
- IC50 (ACE [1]; ref [28]): 34.4 µM

Molecule: Gly-Trp-Ala, purified from pearl oyster meat protein hydrolysate (fraction F62) (peptide)
- ACE inhibitory activity (%) of fraction F62 at a protein concentration of 0.54 mg/mL [5]: 84.7%
- IC50 of ACE inhibitory activity (enzyme activity on HHL), peptide purified from POMPH [2]: 109 µM

Molecule: IWHHT
- IC50 (ACE [1]; ref [28]): 5.1 µM

Molecule: C[C@H](CS)C(=O)N1CCC[C@H]1C(=O)O [captopril]
- change in SBP vs control, in words (SD rats; 0-45 min): significant decrease in SBP
- maximum decrease in SBP (SD rats; 20 min, male L-NNA-treated SD rats, tail cuff): 27.0 mmHg
- SBP beyond 20 min (SD rats; beyond 20 min (to 45 min)): remained stable
- change in DBP vs control, in words (SD rats; in comparison with control group): significantly changed in comparison with control group
- DBP after 20 min of intravenous administration (SD rats; "decreased to", 20 min, male L-NNA-treated SD rats, tail cuff): 39.5 mmHg

Molecule: CC(C)C[C@H](NC(=O)[C@@H](N)Cc1c[nH]cn1)C(=O)N[C@@H](Cc1c[nH]cn1)C(=O)N[C@H](C(=O)O)[C@@H](C)O [HLHT, His-Leu-His-Thr] (H-HLHT-OH)
- ACE inhibitory activity [4]: 64.73 ± 1.32%
- IC50 ([4]; peptide purified from POMPH): 458.1 ± 3.24 µM
- IC50 [4, 6]: 452.2 ± 2.36 µM

Molecule: EVSQGRP
- IC50 (ACE [1]; ref [32]): 50 µM
- Inhibition Pattern (ACE [1]; ref [32]): Mixed inhibition

Molecule: VVYPWTTQRF
- IC50 (ACE [1]; ref [35]): 66 µM
- Inhibition Pattern (ACE [1]; ref [35]): Non-competitive

Molecule: GDLGKTTTVSN-WSPPKYKDTP (GDLGKTTTVSNWSPPKYKDTP)
- IC50 (ACE [1]; ref [33]): 11.3 µM

Molecule: HLHT [His-Leu-His-Thr, purified from pearl oyster meat protein hydrolysate (fraction F51)]
- ACE inhibitory activity (%) of fraction F51 at a protein concentration of 0.54 mg/mL [5]: 64.7%
- IC50 of ACE inhibitory activity (enzyme activity on HHL), peptide purified from POMPH [2]: 458 µM

Molecule: HLHT [His-Leu-His-Thr, synthesized]
- IC50 of ACE inhibitory activity (enzyme activity on HHL), synthesized peptide [2]: 452 µM
